Values joined by “and” are separate entries in the source; they are usually repeats but may differ in a detail not shown here. Identical values can stand only once.
Key:
[1] = test system: phospho-Akt, phospho-ERK, Rb, PRAS40, phospho-histone H3, cyclin B1, PARP, Bcl-XL, caspases 3 and 7; test: biochemical analyses of biomarkers; type: cell-based
[2] = test system: KPL-4 tumors; test: KPL-4 tumor xenograft in SCID beige mice; type: in vivo; conditions: for complete responses (CR) / partial responses (PR): FIG. 10
Experimental: Pertuzumab was dosed on days 0, 7, and 14.
Pertuzumab was dosed on days 0, 7, 14, 21 (qwk×4. 5-FU was dosed on days 0, 7 and 14 (qwk×3). B20-4.1 was dosed on days 0, 3, 7, 10, 14, 17, 21 and 24 (2×/wk×8 total).
(§1) The efficacy of the combinations of the invention may be measured in vivo by implanting allografts or xenografts of cancer cells in rodents and treating the tumors with the combinations.
(§2) Animals suitable for transgenic experiments can be obtained from standard commercial sources. Groups of female CB-17 SCID beige mice (Charles River Laboratory) were implanted with 3 million KPL-4 (Her2 overexpressing) breast cancer cells with matrigel in the mammary fat pad. Groups of female athymic nude mice (Charles River Laboratory or Harlan) were implanted with 2×2 mm3 fragments of MMTV-Her2 Fo5 transgenic breast tumors in the mammary fat pad. Mouse xenografts were dosed at day 0 with drug, drug combination, or vehicle according to the schedule specified for each tumor model. […] Tumor sizes were recorded twice weekly over the course of the study. Mouse body weights were also recorded twice weekly, and the mice were observed regularly. […] Tumor inhibition graphs were plotted using KaleidaGraph, Version 3.6 (Synergy Software; Reading, Pa.). The tumor volume was calculated with formula: Tumor size (mm^3)=[…]
(§3) Tumor incidence (TI) was determined based on the number of measurable tumors remaining in each group at the end of the study. A partial response (PR) was defined as more than 50% but less than 100% reduction in tumor volume, compared with the starting tumor volume, observed for three consecutive measurements. A complete response (CR) was defined as a 100% reduction in tumor volume, compared with the initial tumor volume, observed for three consecutive measurements. Data were analyzed and p-values were determined using the Dunnett's t-test with JMP statistical software, version 5.1.2 (SAS Institute; Cary, N.C.). Individual tumor volumes at end of study and mean tumor volume±SEM values were calculated using JMP statistical software, version 5.1.2. Body weight data were graphed based on the mean percentage of change from initial body weights±SEM.

[3] = test system: MMTV-HER2 Fo5 transgenic mammary tumor; test: MMTV-HER2 Fo5 transgenic mammary tumor in CRL nu/nu mice; type: in vivo; conditions: FIG. 34; T-DM1 10 mg/kg iv q3wk; 5-FU 100 mg/kg po qwk×2; combination T-DM1 5 mg/kg + 5-FU 100 mg/kg; 42 day time point
Experimental: B20-4.1 was dosed on days 0, 3, 7, 10, 14, 17, 21 and 24 (2×/wk×4 for 8 total).
[…] Gemcitabine was dosed on days 0, 3, 6 and 9 (q3d×4).
The efficacy of the combinations of the invention may be measured in vivo by implanting allografts or xenografts of cancer cells in rodents and treating the tumors with the combinations. Variable results are to be expected depending on the cell line, the presence or absence of certain mutations in the tumor cells, the sequence of administration of trastuzumab-MCC-DM1 and chemotherapeutic agent, dosing regimen, and other factors. Subject mice were treated with drug(s) or control (Vehicle) and monitored over several weeks or more to measure the time to tumor doubling, log cell kill, and tumor inhibition (Example 3). FIGS. 10-17 and 34-37 show the efficacy of trastuzumab-MCC-DM1 in combinations with chemotherapeutic agents by xenograft tumor inhibition in mice.
Animals suitable for transgenic experiments can be obtained from standard commercial sources. Groups of female CB-17 SCID beige mice (Charles River Laboratory) were implanted with 3 million KPL-4 (Her2 overexpressing) breast cancer cells with matrigel in the mammary fat pad. Groups of female athymic nude mice (Charles River Laboratory or Harlan) were implanted with 2×2 mm3 fragments of MMTV-Her2 Fo5 transgenic breast tumors in the mammary fat pad. Mouse xenografts were dosed at day 0 with drug, drug combination, or vehicle according to the schedule specified for each tumor model. 5-FU, gemcitabine, carboplatin and B20-4.1 were administered intraperitoneal, pertuzumab was given either intravenously or intraperitoneal as indicated, trastuzumab-MCC-DM1 and docetaxel were administered intravenously, lapatinib, GDC-0941 and ABT-869 were given periorally by gavage. Tumor sizes were recorded twice weekly over the course of the study. Mouse body weights were also recorded twice weekly, and the mice were observed regularly. Tumor volume was measured in two dimensions (length and width) using Ultra Cal IV calipers (Model 54-10-111; Fred V. Fowler Co., Inc.; Newton, Mass.) and analyzed using Excel v.11.2 (Microsoft Corporation; Redmond, Wash.). Tumor inhibition graphs were plotted using KaleidaGraph, Version 3.6 (Synergy Software; Reading, Pa.). The tumor volume was calculated with formula: Tumor size (mm^3)=[…]
Tumor incidence (TI) was determined based on the number of measurable tumors remaining in each group at the end of the study. […] Data were analyzed and p-values were determined using the Dunnett's t-test with JMP statistical software, version 5.1.2 (SAS Institute; Cary, N.C.). Individual tumor volumes at end of study and mean tumor volume±SEM values were calculated using JMP statistical software, version 5.1.2. […]

[4] = test system: MMTV-Her2 Fo5 transgenic mammary tumor; test: MMTV-Her2 Fo5 transgenic mammary tumor in Harlan athymic nude mice; type: in vivo; conditions: for single agent efficacy vs vehicle: FIG. 14, lapatinib 101 mg/kg po bid×21, pertuzumab 40 mg/kg iv qwk×4, B20-4.1 5 mg/kg ip 2×/wk×4, T-DM1 15 mg/kg iv q3wk; for efficacy vs vehicle by both time to tumor doubling and time to tumor endpoint: ABT-869 15 mg/kg, T-DM1 either 7.5 or 15 mg/kg
Experimental: as §1
The time to tumor doubling was measured by Kaplan-Meier statistical analysis as 2× Vo. Time to tumor doubling and survival analysis were quantified by Log-rank-p values. Time to progression is measured as the elapsed time for tumor volume to reach 1000 mm^3, or the survival time if 1000 mm^3 tumor volume is not reached.
as §2, §3

[5] = test system: MDA-MB-361.1 mammary tumor; test: MDA-MB-361.1 mammary tumor xenograft in CRL nu/nu mice; type: in vivo
Experimental: as §1, §3

[6] = phase I study of GDC-0941 as a single agent; type: in vivo, human; conditions: 60 mg qd
[7] = FIG. 16, T-DM1 15 mg/kg iv q3wk×2, 15 mg/kg
[8] = FIG. 17, T-DM1 15 mg/kg iv q3wk×2
[9] = FIG. 36 (5), T-DM1 3 mg/kg iv q3wk
[10] = FIG. 36 (6), T-DM1 10 mg/kg iv q3wk
[11] = FIG. 36 (2), GDC-0941 25 mg/kg po qd×21
[12] = FIG. 36 (3), GDC-0941 50 mg/kg po qd×21
[13] = FIG. 36 (4), GDC-0941 100 mg/kg po qd×21
[14] = FIG. 37 (2), GNE-390 1.0 mg/kg po qd×21
[15] = FIG. 37 (3), GNE-390 2.5 mg/kg po qd×21
[16] = pertuzumab 15 mg/kg, days 0, 7, 14

T-DM1
apoptosis (23 kDa PARP-cleavage fragment, Bcl-XL, activation of caspases 3 and 7) [1]: resulted in apoptosis | phospho-Akt and phospho-ERK [1]: inhibition | levels of the mitotic markers phospho-histone H3 and cyclin B1 ([1]; after treatment): increased levels | complete responses (CR) ([2]; T-DM1 0.3 mg/kg once on day 0): 0 | partial responses (PR) ([2]; T-DM1 0.3 mg/kg once on day 0): 0 | complete responses (CR) ([2]; T-DM1 1 mg/kg once on day 0): 0 | partial responses (PR) ([2]; T-DM1 1 mg/kg once on day 0): 1 | complete responses (CR) ([2]; T-DM1 3 mg/kg once on day 0): 0 | partial responses (PR) ([2]; T-DM1 3 mg/kg once on day 0): 7 | remaining tumors less than 50 mm^3 with no evidence of viable tumor cells (histology, end of study) ([2]; FIG. 11, T-DM1 5 mg/kg single iv, 5-FU 100 mg/kg qwk×3, pertuzumab 40 mg/kg qwk×4): 8 samples | complete responses (CR) [3]: 0 | partial responses (PR) [3]: 1 | single agent efficacy vs vehicle [4]: efficacious as a single agent | efficacy vs vehicle by both time to tumor doubling and time to tumor endpoint ([4]; FIG. 15, p<0.01): significantly better than vehicle | objective responses ([4]; FIG. 16, T-DM1 7.5 mg/kg iv q3wk×2): no objective responses | complete response (CR) [4, 7]: 1 and 2 | partial responses (PR) [4, 7]: 6 and 5 | complete responses (CR) [4, 8]: 3 | partial responses (PR) [4, 8]: 6 | complete response (CR) [5, 9]: 1 | partial responses (PR) [5, 9]: 1 | complete response (CR) [5, 10]: 1 | partial responses (PR) [5, 10]: 8

CS(=O)(=O)CCNCc1ccc(-c2ccc3ncnc(Nc4ccc(OCc5cccc(F)c5)c(Cl)c4)c3c2)o1 [lapatinib, N-(3-chloro-4-(3-fluorobenzyloxy)phenyl)-6-(5-((2-(methylsulfonyl)ethylamino)methyl)furan-2-yl)quinazolin-4-amine, reference compound]
single agent efficacy vs vehicle [4]: not different from vehicle

CS(=O)(=O)N1CCN(Cc2cc3nc(-c4cccc5[nH]ncc45)nc(N4CCOCC4)c3s2)CC1 [GDC-0941, 4-(2-(1H-indazol-4-yl)-6-((4-(methylsulfonyl)piperazin-1-yl)methyl)thieno[3,2-d]pyrimidin-4-yl)morpholine]
phospho-Akt and phospho-ERK [1]: inhibition | phosphorylation of Rb and PRAS40 [1]: decreased phosphorylation | complete response (CR) [5, 11]: 0 | partial responses (PR) [5, 11]: 0 | complete response (CR) [5, 12]: 0 | partial responses (PR) [5, 12]: 1 | complete response (CR) [5, 13]: 0 | partial responses (PR) [5, 13]: 0 | safety of the dose as a single agent [6]: safe as a single agent without any dose limiting toxicities

Cc1c(CN2CCN(C(=O)[C@H](C)O)CC2)sc2c(N3CCOCC3)nc(-c3cnc(N)nc3)nc12 [GNE-390, (S)-1-(4-((2-(2-aminopyrimidin-5-yl)-7-methyl-4-morpholinothieno[3,2-d]pyrimidin-6-yl)methyl)piperazin-1-yl)-2-hydroxypropan-1-one]
complete response (CR) [5, 14]: 0 | partial responses (PR) [5, 14]: 0 | complete response (CR) [5, 15]: 0 | partial responses (PR) [5, 15]: 1

pertuzumab: recombinant, humanized monoclonal antibody that inhibits dimerization of HER2 (CAS Reg. No. 380610-27-5) [reference compound]
complete responses (CR) [2, 16]: 0 | partial responses (PR) [2, 16]: 0 | single agent efficacy vs vehicle [4]: not different from vehicle

CC(=O)O[C@@]12CO[C@@H]1C[C@H](O)[C@@]1(C)C(=O)[C@H](O)C3=C(C)[C@@H](OC(=O)[C@H](O)[C@@H](NC(=O)OC(C)(C)C)c4ccccc4)C[C@@](O)([C@@H](OC(=O)c4ccccc4)[C@H]21)C3(C)C [docetaxel, (2R,3S)—N-carboxy-3-phenylisoserine, N-tert-butyl ester, 13-ester with 5,20-epoxy-1,2,4,7,10,13-hexahydroxytax-11-en-9-one 4-acetate 2-benzoate, trihydrate, reference compound]
partial responses (PR) ([4]; FIG. 16, docetaxel 30 mg/kg iv qwk×3): 2

Cc1ccc(F)c(NC(=O)Nc2ccc(-c3cccc4[nH]nc(N)c34)cc2)c1 [ABT-869, 1-(4-(3-amino-1H-indazol-4-yl)phenyl)-3-(2-fluoro-5-methylphenyl)urea, reference compound]
efficacy vs vehicle by time to tumor doubling ([4]; FIG. 15, ABT-869 5 mg/kg po bid×21): not different than vehicle | efficacy vs vehicle by time to endpoint ([4]; FIG. 15, ABT-869 5 mg/kg po bid×21, p<0.01): significantly better than vehicle | efficacy vs vehicle by both time to tumor doubling and time to tumor endpoint ([4]; FIG. 15, p<0.01): significantly better than vehicle

O=c1[nH]cc(F)c(=O)[nH]1 [5-FU, 5-fluoro-1H-pyrimidine-2,4-dione, reference compound]
complete responses (CR) [3]: 0 | partial responses (PR) [3]: 0

From US8663643B2, “Combinations of an anti-HER2 antibody-drug conjugate and chemotherapeutic agents, and methods of use” (Genentech, Inc., priority 2008, dated 2014)
